Measured values from patent US20210299039A1, “COMPOSITIONS AND METHODS FOR TREATING OCULAR DISEASE BY CONTACT LENS MEDIATED DRUG DELIVERY” (EyeGate Pharmaceuticals, Inc., priority 2020, published 2021).

What was measured:
[1] = Drug loading by soaking hydrogel discs in drug solution (weight gain); type: physicochemical; conditions: 48-hour soak, HEMA-based discs with 15% MPMA vs without; FIG. 5
Experimental: The HEMA-based hydrogels of formulation 5 in Table 1, were made with and without 15% MPMA. Unreacted components were extracted by washing in DI water for at least 3 hours, followed by washing in a 50:50 mixture of reagent alcohol and DI water for at least 3 hours, then washing again in DI water for at least 3 hours. Discs 15 mm in diameter were punched out and dried in a vacuum dessicator for at least 72 hours. The dry discs were weighed to get an initial weight without drug. Discs were then placed in a drug solution for 48 hours on a shaker at 200 rpm. Drug solutions used in this study can be found in Table 2. After 48 hours, the discs were removed from the drug solution, patted with a Kimwipe to remove solution from the surface, and then dried in a vacuum dessicator for at least 48 hours. The dry drug-loaded discs were weighed, and the amount of drug loaded was determined as the drug-loaded disc weight minus the initial weight.

[2] = Drug release into PBS and extraction from HEMA-based hydrogel discs; type: physicochemical; conditions: for effect of MPMA on total amount of drug released and extracted: HEMA-based discs with MPMA vs without, FIG. 7; for effect of MPMA on release over time: HEMA-based material with vs without MPMA, FIGS. 10 and 11
Experimental: At 0.5, 1, 2, 4, 6, and 8 hours the PBS was removed and fresh PBS was added.

[3] = rabbit, in vivo
Experimental: Following sterilization, lenses were handled aseptically. […] Control (drug-free) lenses were soaked and then stored (at 4° C.) in sterile isotonic saline until use. Controls were used only for retention and ocular health assessments.
A total of 11 New Zealand White rabbits were used in this study: 2 animals were in the control group and 9 animals in the treatment group. The nictitating membranes of the rabbits were removed and the rabbits allowed to recover for 2 weeks prior to study initiation. For the study, a contact lens was placed on each eye of an animal and a tarsorrhaphy performed by placing a single staple in the corner of the eyelids to aid in retention of the contact lenses. Cage side observations of the animals occurred every 2 hours to monitor lens retention and ocular health. At 2, 4, and 8 hours following lens placement, 3 animals in the treatment group were euthanized, the staple and contact lens from each eye were removed, and ocular health was noted. The following tissues were then isolated: aqueous humor (AH), vitreous humor (VH), retina, choroid, cornea, conjunctiva, and sclera. The aqueous humor was retrieved from each eye using a sterile 30-gauge needle on a 1 mL syringe while the eyes were still intact in the animal. Tissues were transferred to pre-weighed, pre-labeled tubes in a box of dry ice. […]

[4] = Loss of crosslinked-in dexP during extraction washes (HPLC-UV); type: physicochemical; conditions: formulation 4 hydrogels with MPMA compared to without MPMA; FIG. 4
Experimental: Hydrogels were placed in deionized (DI) water for 35 minutes at 37° C./200 rpm, followed by 3 times in isopropyl alcohol for 25 minutes each at 37° C./200 rpm, then 2 additional times in DI water for 25 minutes each.

[5] = dexP release from silicone-based hydrogel discs into PBS; type: physicochemical
Excerpt: Silicone-based hydrogels similar to formulation 2 in Table 1, but with only 1% EGDMA, were made with and without 15% MPMA. Unreacted components were extracted as described in Example 4.

[6] = In vitro drug release into and across sclera tissue (Franz cell); type: in vitro ADME, Porcine; conditions: 4 minutes, 4 hours, 8 hours; HPLC-UV; FIG. 13
Excerpt: An experimental setup (shown in FIG. 12) for determining drug release from a soft contact lens hydrogel disc into and across sclera tissue was created using a glass Franz cell. The Franz cell was filled with PBS. A cell strainer (BD Falcon, […] nylon, 23 mm ID) was fitted onto the Franz cell as a framework to hold the sclera and hydrogel disc together. Porcine sclera tissue (21 mm diameter, 1 mm thick) was placed in the cell strainer, the drug-loaded hydrogel disc was placed onto the sclera tissue, and a glass bottle was placed on top of the disc to firmly hold the assembly together in the cell strainer. At 4 minutes, 4 hours, or 8 hours, the sclera tissue was removed and a sample of the PBS from the Franz cell was taken. The sclera tissue was digested using collagenase, and the amount of dexP in the digested sclera tissue and PBS was determined using HPLC-UV.

[7] = Formulation 3
Experimental: HEMA-based hydrogels were prepared as described in Example 4 using Formulation 3.

| SMILES | effect of MPMA on amount of drug loaded [1] | effect of MPMA on total amount of drug released and extracted [2] | effect of MPMA on release over time [2] | other results |
| --- | --- | --- | --- | --- |
| Cc1ncc([N+](=O)[O-])n1CCO [Metronidazole] | did not affect loading | did not affect the amount released and extracted | very little effect | total amount of drug released and extracted compared between drugs ([2]; 10 mg/ml soaking solution for metronidazole vs 40 mg/ml for the other drugs): lower than for dexP and predP |
| NC[C@H]1O[C@H](O[C@H]2[C@H](O)[C@@H](O[C@H]3O[C@H](CO)[C@@H](O)[C@H](N)[C@H]3O)[C@H](N)C[C@@H]2N)[C@H](N)C[C@@H]1O [Tobramycin] | did not affect loading | significantly decreased the amount of drug released and extracted | significantly reduced | – |
| C[C@@H]1C[C@H]2[C@@H]3CCC4=CC(=O)C=C[C@]4(C)[C@@]3(F)[C@@H](O)C[C@]2(C)[C@@]1(O)C(=O)COP(=O)(O)O [dexP, dexamethasone phosphate] | significantly increased the amount of drug loaded | significantly greater | – | detection in ocular tissues [3]: detected in the tissues of treated animals at each timepoint; drug reaching the back of the eye [3]: drug concentrations observed in the VH, retina, and choroid; amount of incorporated dexP removed during water and alcohol washes [4]: very little of the incorporated dexP was removed; total amount of dexP released ([5]; silicone-based discs with 15% MPMA vs without, initial soak, release in PBS, FIG. 6A): significantly greater; amount of dexP released after re-loading ([5]; silicone-based discs with MPMA vs without, re-soaked overnight, FIG. 6B): greater amount of dexP release; amount of dexP in sclera tissue and PBS reservoir [6]: increasing amount of dexP in the sclera tissue and PBS over time |
| C[C@@H]1C[C@H]2[C@@H]3CCC4=CC(=O)C=C[C@]4(C)[C@@]3(F)[C@@H](O)C[C@]2(C)[C@@]1(O)C(=O)COP(=O)([O-])[O-].[Na+].[Na+] [disodium dexP] | – | – | – | loading of dexP, disodium form compared to free acid form ([7]; 7 days soak in 40 mg/ml solution, FIG. 16): decreased loading and release; release of dexP, disodium form compared to free acid form ([7]; PBS up to 8 hours, FIG. 17): decreased loading and release |
| C[C@]12C=CC(=O)C=C1CC[C@@H]1[C@@H]2[C@@H](O)C[C@@]2(C)[C@H]1CC[C@]2(O)C(=O)COP(=O)(O)O [predP, Prednisolone phosphate] | significantly increased the amount of drug loaded | significantly greater | – | – |
